Experimental data: patent US9085576B2 (AMGEN INC., priority 2013, dated 2015)

What was measured:
[1] = molecular target: BACE (Homo sapiens (Human), UniProt P56817); assay: In vitro BACE cell-based assay (Aβ40 in conditioned medium, sandwich ELISA)
[2] = molecular target: Cathepsin D (Cat D) (Homo sapiens (Human), UniProt P07339); assay: In vitro enzymatic Cathepsin D (Cat D) FRET assay; format: biochemical; details: read-out: CatD IC50
[3] = molecular target: Beta Secretase enzyme (BACE) (Homo sapiens (Human), UniProt P56817); assay: In vitro enzymatic BACE FRET assay; format: biochemical; details: read-out: BACE1 Enzyme assay IC50
Beta Secretase enzyme (BACE), sequence (P56817 46-501): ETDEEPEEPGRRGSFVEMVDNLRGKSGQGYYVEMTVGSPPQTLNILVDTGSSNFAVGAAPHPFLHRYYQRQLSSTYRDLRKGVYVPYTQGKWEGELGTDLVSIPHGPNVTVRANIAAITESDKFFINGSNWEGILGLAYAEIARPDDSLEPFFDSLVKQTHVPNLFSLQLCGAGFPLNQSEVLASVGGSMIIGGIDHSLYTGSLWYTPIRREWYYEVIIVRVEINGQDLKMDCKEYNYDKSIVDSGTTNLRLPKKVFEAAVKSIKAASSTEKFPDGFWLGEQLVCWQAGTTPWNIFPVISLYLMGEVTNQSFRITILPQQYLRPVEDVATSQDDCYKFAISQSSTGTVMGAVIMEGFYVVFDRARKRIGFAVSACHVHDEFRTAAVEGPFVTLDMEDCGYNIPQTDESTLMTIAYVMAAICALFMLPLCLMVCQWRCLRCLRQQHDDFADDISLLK

Cathepsin D (Cat D), sequence (P07339 65-412, species assumed): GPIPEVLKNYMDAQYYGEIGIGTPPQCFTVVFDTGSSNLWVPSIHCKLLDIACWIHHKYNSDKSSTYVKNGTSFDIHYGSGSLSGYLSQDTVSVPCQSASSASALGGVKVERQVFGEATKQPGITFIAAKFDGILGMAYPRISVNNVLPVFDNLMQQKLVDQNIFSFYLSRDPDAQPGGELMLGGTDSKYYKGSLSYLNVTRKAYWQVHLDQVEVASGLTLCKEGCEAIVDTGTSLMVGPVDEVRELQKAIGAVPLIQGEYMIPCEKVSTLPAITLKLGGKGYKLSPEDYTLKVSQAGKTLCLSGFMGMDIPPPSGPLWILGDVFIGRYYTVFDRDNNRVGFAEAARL
BACE, sequence (P56817 46-501, species assumed): as the sequence (P56817 46-501) above

Row | IC50 [1] | IC50 [2] | IC50 [3] | Structure (SMILES)
1 | 0.12 µM | 942 µM | 3.04 µM | COc1ccc(C(=O)Nc2ccc(F)c([C@@]3(CF)N=C(N)O[C@@H]4C[C@@H]43)c2F)nc1 [Example 79, N-(3-((1R,5S,6R)-3-amino-5-(fluoromethyl)-2-oxa-4-azabicyclo[4.1.0]hept-3-en-5-yl)-2,4-difluorophenyl)-5-methoxypicolinamide]
2 | > 15.6 µM | 1590 µM | > 40 µM | Cn1ccc(C(=O)Nc2ccc(F)c([C@@]3(C(F)F)N=C(N)O[C@@H]4C[C@@H]43)c2)cc1=O [Example 249, N-(3-((1R,5S,6R)-3-amino-5-(difluoromethyl)-2-oxa-4-azabicyclo[4.1.0]hept-3-en-5-yl)-4-fluorophenyl)-1-methyl-2-oxo-1,2-dihydropyridine-4-carboxamide]
3 | 0.0043 µM | 1930 µM | 0.0017 µM | CC#CCOc1cnc(C(=O)Nc2ccc(Cl)c([C@@]3(C(F)F)N=C(N)O[C@@H]4C[C@@H]43)c2)cn1 [Example 215, N-(3-((1R,5S,6R)-3-amino-5-(difluoromethyl)-2-oxa-4-azabicyclo[4.1.0]hept-3-en-5-yl)-4-chlorophenyl)-5-(but-2-yn-1-yloxy)pyrazine-2-carboxamide]
4 | 0.0145 µM | 352 µM | 0.0391 µM | N#Cc1cnc(C(=O)Nc2ccc(Cl)c([C@@]3(CF)N=C(N)O[C@@H]4C[C@@H]43)c2)c(CO)c1 [Example 387, N-(3-((1R,5S,6R)-3-amino-5-(fluoromethyl)-2-oxa-4-azabicyclo[4.1.0]hept-3-en-5-yl)-4-chlorophenyl)-5-cyano-3-(hydroxymethyl)picolinamide]
5 | 2.23 µM | > 400 µM | 12 µM | NC1=N[C@@](CF)(c2cc(NC(=O)c3ccc(Cl)cn3)cnc2F)[C@@H]2C[C@@H]2O1 [Example 230, N-(5-((1S,5R,6S)-3-amino-5-(fluoromethyl)-2-oxa-4-azabicyclo[4.1.0]hept-3-en-5-yl)-6-fluoropyridin-3-yl)-5-chloropicolinamide]
6 | > 15.6 µM | > 400 µM | > 40 µM | COC[C@@]1(c2cc(NC(=O)c3cnc(OC)cn3)ccc2F)N=C(N)O[C@H]2C[C@H]21 [Example 81, N-(3-((1S,5R,6S)-3-amino-5-(methoxymethyl)-2-oxa-4-azabicyclo[4.1.0]hept-3-en-5-yl)-4-fluorophenyl)-5-methoxypyrazine-2-carboxamide]
7 | 0.159 µM | 430 µM | 0.499 µM | NC1=N[C@](CF)(c2cc(NC(=O)c3cc4ccccc4cn3)ccc2F)[C@H]2C[C@H]2O1 [Example 202, N-(3-((1R,5S,6R)-3-amino-5-(fluoromethyl)-2-oxa-4-azabicyclo[4.1.0]hept-3-en-5-yl)-4-fluorophenyl) isoquinoline-3-carboxamide]
8 | 0.603 µM | 77.5 µM | 0.0218 µM | NC1=N[C@@](c2cc(NC(=O)c3ccc(OCC#CC4CC4)cn3)ccc2F)(C(F)F)[C@H]2C[C@H]2O1 [Example 250, N-(3-((1R,5S,6R)-3-amino-5-(difluoromethyl)-2-oxa-4-azabicyclo[4.1.0]hept-3-en-5-yl)-4-fluorophenyl)-5-((3-cyclopropylprop-2-yn-1-yl)oxy)picolinamide]
9 | 0.0604 µM | 1110 µM | 0.0763 µM | COc1cnc(C(=O)Nc2ccc(F)c([C@@]3(C(F)F)N=C(N)O[C@@H]4C[C@@H]43)c2)cn1 [Example 72, N-(3-((1R,5S,6R)-3-amino-5-(difluoromethyl)-2-oxa-4-azabicyclo[4.1.0]hept-3-en-5-yl)-4-fluorophenyl)-5-methoxypyrazine-2-carboxamide]
10 | > 15.6 µM | > 400 µM | > 40 µM | COc1cnc(C(=O)Nc2ccc(F)c([C@]3(C)N=C(N)O[C@H]4C[C@H]43)n2)cn1 [Example 323, N-(6-((1S,5R,6S)-3-amino-5-methyl-2-oxa-4-azabicyclo[4.1.0]hept-3-en-5-yl)-5-fluoropyridin-2-yl)-5-methoxypyrazine-2-carboxamide]
11 | 0.0136 µM | 517 µM | 0.0373 µM | Cc1cc(Cl)cnc1C(=O)Nc1ccc(Cl)c([C@@]2(CF)N=C(N)O[C@@H]3C[C@@H]32)c1 [Example 443, N-(3-((1R,5S,6R)-3-amino-5-(fluoromethyl)-2-oxa-4-azabicyclo[4.1.0]hept-3-en-5-yl)-4-chlorophenyl)-5-chloro-3-methylpicolinamide]
12 | 0.0416 µM | > 400 µM | 0.435 µM | COc1cnc(C(=O)Nc2cnc(F)c([C@]3(C)N=C(N)O[C@H]4C[C@H]43)c2)cn1 [Example 336, N-(5-((1(R,S),5(S,R),6(R,S))-3-amino-5-methyl-2-oxa-4-azabicyclo[4.1.0]hept-3-en-5-yl)-6-fluoropyridin-3-yl)-5-methoxypyrazine-2-carboxamide]
13 | 0.0146 µM | 1200 µM | 0.0835 µM | Cc1cc(OC(F)F)cnc1C(=O)Nc1ccc(Cl)c([C@@]2(CF)N=C(N)O[C@@H]3C[C@@H]32)c1 [Example 126, N-(3-((1R,5S,6R)-3-amino-5-(fluoromethyl)-2-oxa-4-azabicyclo[4.1.0]hept-3-en-5-yl)-4-chlorophenyl)-5-(difluoromethoxy)-3-methylpicolinamide]
14 | 3.02 µM | 19.2 µM | 6.63 µM | NC1=N[C@@](c2cc(NCC#Cc3ccccc3)ccc2F)(C(F)F)[C@H]2C[C@H]2O1 [Example 369, (1R,5S,6R)-5-(difluoromethyl)-5-(2-fluoro-5-((3-phenylprop-2-yn-1-yl)amino)phenyl)-2-oxa-4-azabicyclo[4.1.0]hept-3-en-3-amine]
15 | 0.0546 µM | > 44.4 µM | 0.0949 µM | N#Cc1cnc2c(Nc3ccc(F)c([C@@]4(CF)N=C(N)O[C@@H]5C[C@@H]54)c3)ncc(F)c2c1 [Example 343, 8-((3-((1R,5S,6R)-3-amino-5-(fluoromethyl)-2-oxa-4-azabicyclo[4.1.0]hept-3-en-5-yl)-4-fluorophenyl)amino)-5-fluoro-1,7-naphthyridine-3-carbonitrile]
16 | > 15.6 µM | 1770 µM | > 40 µM | Cc1cc(C#N)cnc1C(=O)Nc1cc(F)c(C)c([C@@]2(C(F)F)N=C(N)O[C@@H]3C[C@@H]32)c1 [Example 310, N-(3-((1R,5S,6R)-3-amino-5-(difluoromethyl)-2-oxa-4-azabicyclo[4.1.0]hept-3-en-5-yl)-5-fluoro-4-methylphenyl)-5-cyano-3-methylpicolinamide]
17 | > 17.4 µM | 1480 µM | 26.2 µM | NC1=N[C@@](c2cc(NC(=O)c3nn(C(F)F)cc3Cl)cc(F)c2F)(C(F)F)[C@H]2C[C@H]2O1 (stereo in doubt) [Example 110, N-(3-((1R,5S,6R)-3-amino-5-(difluoromethyl)-2-oxa-4-azabicyclo[4.1.0]hept-3-en-5-yl)-4,5-difluorophenyl)-4-chloro-1-(difluoromethyl)-1H-pyrazole-3-carboxamide]

Row | Structure (SMILES) | IC50 [1] | IC50 [2] | IC50 [3]
18 | NC1=N[C@@](c2cc(N3Cc4cc(Cl)cnc4C3=O)ccc2F)(C(F)F)[C@H]2C[C@H]2O1 [Example 437, 6-(3-((1R,5S,6R)-3-amino-5-(difluoromethyl)-2-oxa-4-azabicyclo[4.1.0]hept-3-en-5-yl)-4-fluorophenyl)-3-chloro-5H-pyrrolo[3,4-b]pyridin-7(6H)-one] | 0.384 µM | 659 µM | 2.19 µM
